Patent publication US4368261A, “Method and reagent for the determination of triglycerides” (priority 1979, dated 1983)

Assays:
Test in all cases: Stability of glycerokinase in the presence of dichlorophenol at 25° C. (Table 2)
Type in all cases: biochemical
[1] = biological target: glycerokinase (GK) from Bacillus stearothermophilis (Geobacillus stearothermophilus, UniProt A0ACH1EBP7)
Excerpt: (§1) It is known that Bacillus stearothermophilis contains a glycerokinase (see J. Appl. Bac., 38, 301-304/1975). However, it could not be deduced from this that this glycerokinase would display a good stability towards the mentioned group of activators which would permit its use together with these activators.

[2] = biological target: T1, glycerokinase (GK) from Escherichia coli (commercially available) (Escherichia coli, UniProt P0A6F3)
T1 construct: purchased
Excerpt: as §1

[3] = test system: glycerokinase (GK, E.C. 2.7.1.30) from Candida mycoderma
Excerpt: as §1

dichlorophenol
residual activity after 30 min. ([1]; 2 mM dichlorophenol): 100%
residual activity after 60 min. ([1]; 2 mM dichlorophenol): 100%
residual activity after 30 min. ([1]; 5 mM dichlorophenol): 100%
residual activity after 60 min. ([1]; 5 mM dichlorophenol): 100%
residual activity after 30 min. ([2]; 2 mM dichlorophenol): 93%
residual activity after 60 min. ([2]; 2 mM dichlorophenol): 87%
residual activity after 30 min. ([2]; 5 mM dichlorophenol): 81%
residual activity after 60 min. ([2]; 5 mM dichlorophenol): 58%
residual activity after 30 min. ([3]; 2 mM dichlorophenol): 68%
residual activity after 60 min. ([3]; 2 mM dichlorophenol): 56%
residual activity after 30 min. ([3]; 5 mM dichlorophenol): 18%
residual activity after 60 min. ([3]; 5 mM dichlorophenol): 7%
